In US20220389031A1, “MACROCYCLIC SULFONYLAMIDE DERIVATIVES USEFUL AS NLRP3 INHIBITORS” (Inflazome Limited, priority 2019, published 2022):

How the values were obtained:
NLRP3 [1] = target: T1, NLRP3 (Homo sapiens, UniProt Q96P20); experiment: THP-1 cells pyroptosis assay (LPS + nigericin, resazurin readout); format: cell-based; design: Seed THP-1 cells (25,000 cells/well) containing 1.0 μg/ml LPS; host or cells: THP-1 cells; settings: NLRP3 inhibitory activity, 1.0 μg/ml LPS, 3 hrs compound, nigericin 5 μM 1 hr
Method: THP-1 cells (ATCC #TIB-202) were grown in RPMI containing L-glutamine (Gibco #11835) supplemented with 1 mM sodium pyruvate (Sigma #S8636) and penicillin (100 units/ml)/streptomycin (0.1 mg/ml) (Sigma #P4333) in 10% Fetal Bovine Serum (FBS) (Sigma #F0804). The cells were routinely passaged and grown to confluency (˜10^6 cells/ml). On the day of the experiment, THP-1 cells were harvested and resuspended into RPMI medium (without FBS). The cells were then counted and viability (>90%) checked by Trypan blue (Sigma #T8154). Appropriate dilutions were made to give a concentration of 625,000 cells/ml. To this diluted cell solution was added LPS (Sigma #L4524) to give a […] Final Assay Concentration (FAC). 40 μl of the final preparation was aliquoted into each well of a 96-well plate. The plate thus prepared was used for compound screening.
The following method step-by-step assay was followed for compound screening. • 1. Seed THP-1 cells (25,000 cells/well) containing 1.0 μg/ml LPS in 40 μl of RPMI medium (without FBS) in 96-well, black walled, clear bottom cell culture plates coated with poly-D-lysine (VWR #734-0317) • 2. Add 5 μl compound (8 points half-log dilution, with 10 μM top dose) or vehicle (DMSO 0.1% FAC) to the appropriate wells • 3. Incubate for 3 hrs at 37° C., 5% CO2 • 4. Add 5 μl nigericin (Sigma #N7143) (FAC 5 μM) to all wells • 5. Incubate for 1 hr at 37° C., 5% CO2 • 6. At the end of the incubation period, spin plates at 300×g for 3 mins and remove supernatant • 7. Then add 50 μl of resazurin (Sigma #R7017) (FAC 100 μM resazurin in RPMI medium without FBS) and incubate plates for a further 1-2 hrs at 37° C. and 5% CO2 • 8. Plates were read in an Envision reader at Ex 560 nm and Em 590 nm • 9. IC50 data is fitted to a non-linear regression equation (log inhibitor vs response-variable slope 4-parameters)

NLRP3 [2] = target: T1, NLRP3; experiment: Human whole blood IL-1β release assay (LPS + nigericin, AlphaLisa); format: cell-based; design: Plate out 80 μl of whole blood containing 1 μg/ml of LPS; from tissue; host or cells: human whole blood from healthy volunteer donors; settings: NLRP3 inhibitory activity, 1 μg/ml LPS, 3 hrs compound, nigericin 10 μM 1 hr, read-out: HWB IC50
Method: For systemic delivery, the ability to inhibit NLRP3 when the compounds are present within the bloodstream is of great importance. For this reason, the NLRP3 inhibitory activity of a number of compounds in human whole blood was investigated in accordance with the following protocol.
Human whole blood in Li-heparin tubes was obtained from healthy donors from a volunteer donor panel. • 1. Plate out 80 μl of whole blood containing 1 μg/ml of LPS in 96-well, clear bottom cell culture plate (Corning #3585) • 2. Add 10 μl compound (8 points half-log dilution with 10 μM top dose) or vehicle (DMSO 0.1% FAC) to the appropriate wells • 3. Incubate for 3 hrs at 37° C., 5% CO2 • 4. Add 10 μl nigericin (Sigma #N7143) (10 μM FAC) to all wells • 5. Incubate for 1 hr at 37° C., 5% CO2 • 6. […] IL-1β was measured according to the manufacturer protocol (Perkin Elmer-AlphaLisa IL-1 Kit AL220F-5000) • 8. IC50 data is fitted to a non-linear regression equation (log inhibitor vs response-variable slope 4-parameters)

T1 sequence (Q96P20 whole entry): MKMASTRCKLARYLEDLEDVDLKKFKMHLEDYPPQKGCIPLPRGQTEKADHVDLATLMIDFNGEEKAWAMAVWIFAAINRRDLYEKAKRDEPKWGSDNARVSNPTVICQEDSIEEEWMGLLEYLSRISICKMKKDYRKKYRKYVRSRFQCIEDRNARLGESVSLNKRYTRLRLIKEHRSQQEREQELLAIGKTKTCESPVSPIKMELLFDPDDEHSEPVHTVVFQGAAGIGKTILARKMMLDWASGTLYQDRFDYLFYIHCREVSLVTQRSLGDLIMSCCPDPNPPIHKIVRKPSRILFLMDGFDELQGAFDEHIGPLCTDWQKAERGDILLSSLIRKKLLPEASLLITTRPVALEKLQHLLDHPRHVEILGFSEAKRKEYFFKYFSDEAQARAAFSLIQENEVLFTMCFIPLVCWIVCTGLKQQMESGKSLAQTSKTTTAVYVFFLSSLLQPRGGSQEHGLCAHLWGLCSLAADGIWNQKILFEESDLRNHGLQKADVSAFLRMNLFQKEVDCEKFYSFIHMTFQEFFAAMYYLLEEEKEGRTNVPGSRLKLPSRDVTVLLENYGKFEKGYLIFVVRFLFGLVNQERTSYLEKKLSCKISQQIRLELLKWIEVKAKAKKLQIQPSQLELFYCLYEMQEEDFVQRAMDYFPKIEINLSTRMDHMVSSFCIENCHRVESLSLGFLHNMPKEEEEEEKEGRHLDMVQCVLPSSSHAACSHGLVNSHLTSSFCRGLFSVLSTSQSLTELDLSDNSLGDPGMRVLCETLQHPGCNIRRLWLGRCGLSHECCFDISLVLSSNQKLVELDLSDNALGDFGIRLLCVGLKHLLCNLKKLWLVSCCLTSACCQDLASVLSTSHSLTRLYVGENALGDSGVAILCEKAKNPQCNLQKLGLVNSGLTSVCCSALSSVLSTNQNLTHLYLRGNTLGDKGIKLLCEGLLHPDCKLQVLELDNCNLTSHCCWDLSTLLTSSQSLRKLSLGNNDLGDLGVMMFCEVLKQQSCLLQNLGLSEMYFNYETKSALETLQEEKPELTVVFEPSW

| SMILES | IC50 (NLRP3 [1]) [nM] | IC50 (NLRP3 [2]) [nM] |
| --- | --- | --- |
| Cc1nn2cc1S(=O)(=O)NC(=O)Cc1c(cccc1C(C)C)-c1ccnc(c1)OCC2(C)C [Example 24] | 500 to 1000 | 1000 to 5000 |
| CC(C)c1cccc2c1CC(=O)NS(=O)(=O)c1cc(n(C(C)C)n1)CCOc1cc-2ccn1 [Example 10] | 1000 to 5000 | 1000 to 5000 |
| CC(C)c1cccc2c1CC(=O)NS(=O)(=O)c1cnn(c1)CCOc1cc-2ccn1 [Example 21] | 1000 to 5000 | 5000 to 10000 |
| CC1(C)COc2cc(ccn2)-c2cccc(C3CC3)c2CC(=O)NS(=O)(=O)c2nn1cc2F [Example 27] | 1000 to 5000 | 500 to 1000 |
| CC(C)c1cccc2c1CC(=O)NS(=O)(=O)c1cn(cn1)C(C)(C)COc1cc-2ccn1 [Example 33] | 500 to 1000 | 1000 to 5000 |
| CC(C)c1cccc2c1CC(=O)NS(=O)(=O)c1nn(c3ncccc13)C(C)(C)COc1cc-2ccn1 [Example 37] | 500 to 1000 | 1000 to 5000 |
| COc1cn2nc1S(=O)(=O)NC(=O)Cc1c(cc(F)cc1C(C)C)-c1ccnc(c1)OCC2(C)C [Example 19] | 100 to 500 | 500 to 1000 |
| CCN1CCc2c3nn(c2C1)C(C)(C)COc1cc(ccn1)-c1cc(F)cc(C(C)C)c1CC(=O)NS3(=O)=O [Example 40] | 1000 to 5000 | 1000 to 5000 |
| CC(C)c1cc(F)cc2c1CC(=O)NS(=O)(=O)c1cc(C(=O)N(C)C)n(n1)C(C)(C)COc1cc-2ccn1 [Example 41] | 1000 to 5000 | 1000 to 5000 |
| CC(C)c1cc(F)cc2c1CC(=O)NS(=O)(=O)c1cnn(c1)CCOc1cc-2ccn1 [Example 22] | 1000 to 5000 | 5000 to 10000 |
| CC(C)c1cccc2c1CC(=O)NS(=O)(=O)c1ccn(n1)CCOc1cc-2ccn1 [Example 4] | 1000 to 5000 | 5000 to 10000 |
| CC(C)c1cccc2c1CC(=O)NS(=O)(=O)c1cc(cc(C(C)(C)O)c1)CCOc1cc-2ccn1 [Example 11] | 100 to 500 | 1000 to 5000 |
| CC(C)c1cc(F)cc2c1CC(=O)NS(=O)(=O)c1nn(cc1F)C(C)(C)COc1cc-2ccn1 [Example 15] | 100 to 500 | 1000 to 5000 |
| CC(C)c1cccc2c1CC(=O)NS(=O)(=O)c1cnn(n1)C(C)(C)COc1cc-2ccn1 [Example 36] | 1000 to 5000 | 1000 to 5000 |
| CC(C)(O)c1cc2cc(c1)S(=O)(=O)NC(=O)Cc1c(ccc3c1CCC3)-c1ccnc(c1)OCC2 [Example 17, 17-(2-hydroxypropan-2-yl)-22-oxa-14λ^6-thia-13,24-diazapentacyclo-[21.3.1.1^15,19.0^2,10.0^5,9]octacosa-1(26),2,4,9,15,17,19(28),23(27),24-nonaene-12,14,14-trione] | 500 to 1000 | 1000 to 5000 |
| CC(C)c1cccc2c1CC(=O)NS(=O)(=O)c1cc(CN(C)C)n(n1)CCCCCOc1cc-2ccn1 [Example 3] | 5000 to 10000 | 5000 to 10000 |
| Cc1ccc(C(C)C)c2c1-c1ccnc(c1)OCC(C)(C)n1cc(F)c(n1)S(=O)(=O)NC(=O)C2 [Example 12] | 500 to 1000 | 500 to 1000 |
| CC(C)c1cccc2c1CC(=O)NS(=O)(=O)c1nn(cc1F)C(C)(C)CCOc1cc-2ccn1 [Example 31] | 1000 to 5000 | 1000 to 5000 |
| CC(C)c1cccc2c1CC(=O)NS(=O)(=O)c1ccn(n1)CCOc1cc-2cnn1 [Example 44, 6-(propan-2-yl)-18-oxa-11λ^6-thia-10,15,20,21,24-pentaazatetracyclo-[17.3.1.1^12,15.0^2,7]tetracosa-1(22),2(7),3,5,12(24),13,19(23),20-octaene-9,11,11-trione] | 1000 to 5000 | 5000 to 10000 |
| CC(C)c1cccc2c1CC(=O)NS(=O)(=O)c1nn(cc1F)-c1ncccc1COc1cc-2ccn1 [Example 38] | 1000 to 5000 | 1000 to 5000 |
| Cc1ccc(C(C)C)c2c1-c1ccnc(c1)OCC(C)(C)n1ccc(n1)S(=O)(=O)NC(=O)C2 [Example 2] | 1000 to 5000 | 500 to 1000 |
| Cc1ccc(C(C)C)c2c1-c1ccnc(c1)OCCn1cc(F)c(n1)S(=O)(=O)NC(=O)C2 [Example 13] | 1000 to 5000 | 1000 to 5000 |
| CC(C)c1cccc2c1CC(=O)NS(=O)(=O)c1ccn(n1)C(C)(C)COc1cc-2ccn1 [Example 1, 16,16-dimethyl-6-(propan-2-yl)-18-oxa-11λ^6-thia-10,15,20,24-tetraaza-tetracyclo[17-3-1-1^12,15.0^2,7]tetracosa-1(22),2(7),3,5,12(24),13,19(23),20-octaene-9,11,11-trione] | 1000 to 5000 | 1000 to 5000 |
| CC(C)c1cc(F)cc2c1CC(=O)NS(=O)(=O)c1nn(c(C(=O)N(C)C)c1F)C(C)(C)COc1cc-2ccn1 [Example 39] | 1000 to 5000 | 1000 to 5000 |
